Measured values as given in BindingDB's records for doi:10.1016/S0960-894X(01)80235-3 (1994).

Target: O-acyltransferase (Oryctolagus cuniculus, UniProt G1SFD9)
Assay: ChEBML_28168
Procedure: In vitro Acyl coenzyme A:cholesterol acyltransferase inhibition by incubation with [14C]oleolyl-CoA and intestinal microsomes isolated from cholesterol-fed rabbits.

O-acyltransferase, sequence (G1SFD9 1-524): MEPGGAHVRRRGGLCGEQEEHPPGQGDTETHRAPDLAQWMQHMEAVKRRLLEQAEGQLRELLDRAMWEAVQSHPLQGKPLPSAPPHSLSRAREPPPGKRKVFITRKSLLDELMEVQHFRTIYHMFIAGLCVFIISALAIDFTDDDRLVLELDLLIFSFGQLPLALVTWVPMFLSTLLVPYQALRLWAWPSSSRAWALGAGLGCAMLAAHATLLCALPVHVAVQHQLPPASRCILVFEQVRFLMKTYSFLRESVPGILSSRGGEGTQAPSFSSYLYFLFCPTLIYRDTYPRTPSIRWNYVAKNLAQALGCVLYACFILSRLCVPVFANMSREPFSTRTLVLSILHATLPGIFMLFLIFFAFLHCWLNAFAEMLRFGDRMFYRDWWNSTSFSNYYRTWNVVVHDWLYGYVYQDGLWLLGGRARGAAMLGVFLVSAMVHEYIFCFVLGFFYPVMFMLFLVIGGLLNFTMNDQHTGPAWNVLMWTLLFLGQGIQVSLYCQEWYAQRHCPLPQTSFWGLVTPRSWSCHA

IC50, 5 µM:
CCCCCCCC/C=C\CCCCCCCc1cc(=O)n(-c2ccc(F)cc2F)[nH]1 [2-(2,4-Difluoro-phenyl)-5-((Z)-heptadec-8-enyl)-2,4-dihydro-pyrazol-3-one]
CCCCCCCC/C=C\CCCCCCCc1cc(=O)n(-c2ccc(C)cc2C)[nH]1 [2-(2,4-Dimethyl-phenyl)-5-((Z)-heptadec-8-enyl)-2,4-dihydro-pyrazol-3-one]
CCCCCCCC/C=C\CCCCCCC[c+]1cc(O)n(-c2ccc([N+](=O)[O-])cc2[N+](=O)[O-])[n-]1 [2-(2,4-Dinitro-phenyl)-5-((Z)-heptadec-8-enyl)-2,4-dihydro-pyrazol-3-one]
CCCCCCCCCCc1cc(=O)n(-c2c(C)cccc2C)[nH]1 [5-Decyl-2-(2,6-dimethyl-phenyl)-2,4-dihydro-pyrazol-3-one]
